According to US7531500B2, “Preventing airway mucus production by administration of EGF-R antagonists” (The Regents of the University of California, priority 1998, dated 2009):

Experiments:
NCI-H292 cells [1] = assay: Northern analysis for MUC5 gene expression in NCI-H292 cells; type: cell-based, human; details: EGF or TGFα 25 ng/ml, TNFα 20 ng/ml; 12 h, 24 h
Description: Cell culture. A human pulmonary mucoepidermoid carcinoma cell line, NCI-H292 cells, were grown in RPMI11640 medium containing 10% fetal bovine serum, penicillin (100 U/ml), streptomycin (100 μg/ml) at 37° C. in a humidified 5% CO2 water-jacketed incubator. […] In inhibition studies with an EGF-R tyrosine kinase inhibitor, BIBX1522 (10 μg/ml, generously provided by Boehringer Ingelheim Inc., Ingelheim, Germany), cells were pretreated with BIBX1522 30 min before adding growth factors. After incubation, cells grown in a T-75 flask were used for total RNA extraction or protein extraction, and 8-chamber slides were used for Alcian blue/PAS-staining to visualize mucins.

pathogen-free rats = assay: Goblet cell production in pathogen-free rats after tracheal instillation of TNFα and EGF-R ligands; type: in vivo, rat
Description: Healthy rats. Rats were anesthetized with methohexital sodium (Brevital sodium, 50 mg/kg, i.p.; Eli Lilly & Co., Indianapolis, Ind.) and allowed to breathe spontaneously. […] In each study, sterile PBS (100 μl) was instilled into the trachea as control. […] Rats were pretreated with BIBX1522 (3, 10 or 30 mg/kg, i.p.), 1 h before and 24 h after instillation of TGFα. The trachea and lungs were removed for examination 48 h after the instillation of TGFα.
Tissue preparation. At preselected times during anesthesia, the systemic circulation was perfused with 1% paraformaldehyde in DEPC-treated PBS at a pressure of 120 mmHg. The trachea was then removed and placed in 4% paraformaldehyde for 24 h. After fixation, trachea and lungs were embedded in either JB-4 plus monomer solution A for cell analysis or O.C.T. compound (Sakura Finetek U.S.A., Inc., Torrance, Calif.) for immunohistochemistry and in situ hybridization. The embedded tissues were cut as cross sections ([…] thick) and placed on slides.
Cell analysis. We counted the total number of epithelial cells by counting epithelial cell nuclei over 2 mm of the basal lamina with an oil immersion objective lens (×1000 magnification). The linear length of the basal lamina under each analyzed region of epithelium was determined by tracing the contour of the digitized image of the basal lamina. After instillation of stimuli, “developing” goblet cells form. These cells have Alcian blue/PAS-positive granules, but the size of granules is small, and the number of cytoplasmic granules is few. We call these “developing” goblet cells “pre-goblet cells”, a stage before cells become mature goblet cells. Goblet cells are tall, cuboidal, goblet to low columnar in shape, with abundant Alcian blue/PAS-stained granules filling most of the cytoplasm between the nucleus and the luminal surface. Pre-goblet cells are defined as cells with smaller mucus-stained areas (<1/3 height in epithelium from basement membrane to luminal surface) or with sparsely and lightly Alcian blue/PAS-stained, small granules. Ciliated cells are recognized by their ciliated borders, lightly stained cytoplasm, and large round nuclei. Non-granulated secretory cells are columnar in shape and extend from the lumen to the basal lamina. The cytoplasm stains light pink color, and a few tiny PAS-positive and Alcian blue-negative granules are observed in the cytoplasm. Basal cells are small flattened cells with a large nucleus, located just above the basal lamina but not reaching the airway lumen.
Quantification of goblet cell production. Goblet cell production, was determined by the volume density of Alcian blue/PAS-stained mucosubstances on the mucosal surface epithelium using a semi-automatic imaging system described elsewhere (Weber et al. (1984) Science 224:294-297). We measured the Alcian blue/PAS-positive stained area and the total epithelial area and expressed the data as the percentage of the total area stained by Alcian blue-PAS. The analysis was performed with the public domain NIH Image program (developed at the U.S. National Institute of Health and available from the Internet by anonymous FTP from zippy.nimh.gov or on floppy disk from the National Technical Information Service, Springfield, Va., part number PB95-500195GEI).
Immunohistochemical localization of EGF-R in rat epithelium. The localization of EGF-R was examined using immunchistochemical staining with an antibody to EGF-R (Calbiochem, San Diego, Calif.) in frozen sections of rat trachea. After perfusion with 1% paraformaldehyde in PBS, tissues were placed in 4% paraformaldehyde in PBS for 1 h and then removed in 30% sucrose for cryoprotection overnight. Tracheas were embedded in O.C.T. compound (Sakura Finetek U.S.A., Inc., Torrance, Calif.) and frozen. Frozen sections (5 μm) were cut and placed on glass slides (Superfrost Plus, Fisher Scientific, Pittsburgh, Pa.). Immunostaining was performed similarly to the in vitro studies.

NCI-H292 cells [2] = assay: In situ hybridization for MUC5AC gene in NCI-H292 cells (Example 2); type: cell-based, human; details: within 12 h
Description: Cell Culture. NCI-H292 cells, a human pulmonary mucoepidermoid carcinoma cell line, were grown in RPMI 1640 medium containing 10% fetal bovine serum, penicillin (100 U/ml), streptomycin (100 μg/ml) and Hepes (25 mM) at 37° C. in a humidified 5% CO2, water-jacketed incubator. Either 6-well culture plates or 8-chamber slides were used to culture the cells. When confluent, cells were incubated for 1 h with neutrophils (10^6 cells/ml) alone, TNFα alone (recombinant human TNFα, 20 ng/ml, Genzyme, Cambridge, Mass.), IL-8 (recombinant human IL-8, 10^−8 M, Genzyme) alone, fMLP (10^−8 M, Sigma, St. Louis, Mo.) alone, TNFα plus neutrophils, IL-8 plus neutrophils, fMLP plus neutrophils, hydrogen peroxide (H2O2, 200 μM), cigarette smoke solution or TGFα (recombinant human TGFα, 0.1-25 ng/ml, Calbiochem, San Diego, Calif.). The cells were then washed and incubated with fresh medium alone. Experiments were terminated at preselected times (for mRNA, 6 h and 12 h; for protein, 24 h). As controls, cells were incubated with medium alone for same time periods. […] NCI-H292 cells were incubated for 1 h with either neutrophils that had been incubated with TNFα (20 ng/ml) for 1 h and then washed with sterile PBS to avoid contamination with the supernatant (e.g., molecules released from neutrophils), or the NCI-H292 cells were incubated with supernatant only. […]

## TGFα: transforming growth factor alpha, EGF-R ligand (recombinant human; rat synthetic in vivo)
NCI-H292 cells [1]
  MUC5 gene expression on incubation with mediator: clearly expressed at 24 h
pathogen-free rats; TGFα 250 ng alone or 24 h after TNFα 200 ng, i.t., 48 h later, counted over 2 mm basal lamina, mean ± SEM, 5 rats
  Goblet cells in tracheal epithelium: 5.8 ± 1.2
pathogen-free rats; as E9
  % of AB/PAS-stained area: 6.8 ± 1.9%
  Basal cells in tracheal epithelium: 56.8 ± 2.3
  Ciliated cells in tracheal epithelium: 54.6 ± 2.3
  Indeterminate cells in tracheal epithelium: 2.0 ± 0.4
  Pre-goblet cells in tracheal epithelium: 12.8 ± 1.6
  Secretory cells in tracheal epithelium: 72.2 ± 4.0
  Total cells in tracheal epithelium: 204.2 ± 3.3
NCI-H292 cells [2]
  MUC5AC gene expression: up-regulated
